{"source": "patent US10314883B2", "about": "“Compositions and methods for regulating blood pressure” (University of Virginia Patent Foundation, priority 2015, dated 2019)", "key": {"[1]": {"tested_on": "thoracodorsal arteries (TDA)", "settings": "for EC50: read-out: EC50 of agonist for TDA constriction"}, "[2]": {"tested_on": "thoracodorsal arteries (TDA)", "assay": "tissue or blood", "settings": "Mus musculus"}, "[3]": {"tested_on": "thoracodorsal arteries (TDA)", "assay": "ATP release from intact TDA (luciferin:luciferase)", "format": "cell-based, mouse", "settings": "for ATP release from intact TDAs in response to agonist: five minutes of agonist, ARL67156 300 μmol/L", "protocol": "Mouse TDAs of equal length were isolated and washed thoroughly to eliminate red blood cells. Vessels were placed in a well of a 96-well plate containing Krebs-HEPES solution supplemented with 1% BSA at 37° C. for 30 minutes to allow for degradation of any ATP released as a result of mechanical stimulation during manipulation of the vessel. For measurements performed on HEK cells: 24 hours after transfection, cells cultured in 24-well plates were cautiously washed twice with warm Krebs-HEPES-BSA and 300 μl of Krebs-HEPES-BSA was added to each well after the last wash as previously described. The plate was then kept in the incubator at 37° C. with 5% CO2 for 30 minutes to allow for degradation of ATP eventually released during the washes.\nThe ectonucleotidase inhibitor ARL67156 (300 μmol/L) was applied to each well. When indicated, ^10Panx1 (300 μmol/L) or the peptides analog to intracellular regions of Panx1 (3 μmol/L) were added along with the ARL67156. After a 30 minute incubation at 37° C. with the inhibitor(s), phenylephrine (100 μmol/L) or equivalent volume of Krebs-HEPES-BSA was added and the plate was kept at 37° C. After five minutes of phenylephrine stimulation, the media surrounding the TDA or the cells was transferred to an Eppendorf tube and centrifuged for five minutes at 5,000×g to eliminate eventual cell debris. Fifty microliters of the supernatant was transferred to a white-wall 96 well plate and placed in a FluoStar Omega luminometer. The ATP concentration was measured by adding 50 μL of luciferin:luciferase reagent (ATP bioluminescence assay kit HSII; Roche), which was injected into each well and the luminescence was immediately recorded. Data are expressed as a percent increase in ATP concentration compared to unstimulated condition. Each stimulated condition was compared to unstimulated condition performed on the same day, and all experiments were performed on at least 15 wells of HEK cells or three TDAs. Data were analyzed using a Kruskall Wallis test (non-parametric one-way ANOVA) followed by Dunn's post-hoc test.\nTo determine if the TDA response involved release of ATP, we dissected TDAs from C57Bl/6 mice and measured the accumulation of extracellular ATP in response to various agonists in the medium (FIG. 1E, inset). The TDAs were placed in a well of a 96 well plate in Krebs-HEPES solution and treated with the ectonucleotidase inhibitor ARL67156 for 30 minutes. Next, arteries were treated with a contractile agonist for five minutes and the amount of ATP in the media surrounding the vessel was determined using the ATP bioluminescence assay kit HSII (Roche)."}, "[4]": {"tested_on": "thoracodorsal arteries (TDA)", "assay": "Pressure myography: agonist-induced constriction of pressurized TDAs from C57Bl/6 mice with pannexin inhibitors or Panx1 mimetic peptides", "format": "cell-based, mouse", "settings": "for effect on phenylephrine-induced constriction of pressurized TDAs: TAT-linked peptides, C57Bl/6 TDAs", "protocol": "The contractile responses of pressurized thoracodorsal arteries (TDA) were measured as previously described. Briefly, TDA were isolated and placed in cold Krebs-HEPES until cannulation in a pressure arteriograph (Danish MyoTechnology). After a 30 minute equilibration period, cumulative concentrations of contractile agonists were applied to the TDA pressurized at 80 mmHg, and the vessel was visualized with an Olympus IX-71 microscope attached to a Hamamatsu EM-CCD camera coupled to Slidebook imaging software. […] Lastly, maximal diameter was measured at the end of each experiment in calcium-free Krebs-HEPES supplemented with EGTA (1 mmol/L) and sodium nitroprusside (10 μmol/L). In cases where the vessels were not constricting to the contractile agonist, their viability was assessed by applying 40 mM KCl and only TDA reaching 30% of the maximal diameter were considered for analysis. The contractile responses, as well as the basal tone, are expressed as a percentage of the maximal diameter.\nUsing pressure arteriography on TDA dissected from C57Bl/6 mice (as described; and aortic ring contraction, as described), we measured the effect of pannexin inhibitors, probenecid and 10Panx1, on the contractile response upon stimulation with different vasoconstrictors: phenylephrine (FIG. 1A), noradrenaline (also called norepinephrine) (FIG. 1B), serotonin (also known as 5-HT) (FIG. 1C) and endothelin-1 (FIG. 1D). […] In contrast, ^10Panx1 and probenecid had no effect on contraction of TDA measured in response to cumulative concentrations of serotonin or endothelin-1 (FIGS. 1C-D; Table 1).\nTo determine the region of Panx1 necessary for channel activation in response to α1AR stimulation, we produced short peptides derived from the intracellular regions of the Panx1 channel. We generated two peptides mimicking unique mouse Panx1 (mPanx1) sequences in the first intracellular loop (IL1 and IL2) and two peptides mimicking unique mPanx1 sequences in the C-terminal region, one in second intracellular loop (CT1) and one in the C-terminal tail (CT2) (FIG. 4A scissors indicate caspase 3 cleavage site; Table 3). All peptides also contained a TAT sequence to facilitate entry into cells and we verified the intracellular localization of each peptide by immunofluorescence detection of the TAT sequence in TDAs pre-incubated with each peptide (FIG. 7A). We tested the effect of each peptide on phenylephrine-induced contractile responses in pressurized TDAs from C57Bl/6 mice (FIGS. 4B-E). […] Note that these differences in effects of phenylephrine were similar in magnitude to those observed in arteries from SMC-specific Panx1-knockout mice and littermate controls (FIG. 2C, Table 2)."}, "[5]": {"settings": "TDAs from Cre^+/Panx1^FL mice, tamoxifen-injected (SMC Panx1 knockout)"}, "[6]": {"settings": "TDAs from Cre^+/Panx1^WT mice, tamoxifen-injected"}, "[7]": {"settings": "TDAs from Cre^−/Panx1^FL mice, tamoxifen-injected"}, "[8]": {"settings": "TDAs from Cre^−/Panx1^WT mice, tamoxifen-injected"}, "[9]": {"settings": "read-out: EC50 of agonist for TDA constriction, TDAs from Cre^+/Panx1^FL mice, tamoxifen-injected (SMC Panx1 knockout)"}, "[10]": {"settings": "read-out: EC50 of agonist for TDA constriction, TDAs from Cre^+/Panx1^WT mice, tamoxifen-injected"}, "[11]": {"settings": "read-out: EC50 of agonist for TDA constriction, TDAs from Cre^−/Panx1^FL mice, tamoxifen-injected"}, "[12]": {"settings": "read-out: EC50 of agonist for TDA constriction, TDAs from Cre^−/Panx1^WT mice, tamoxifen-injected"}, "[13]": {"settings": "in presence of the named peptide"}, "[14]": {"settings": "in presence of ^10Panx1 (300 μmol/L) or probenecid (2 mmol/L)"}, "[15]": {"settings": "pannexin inhibitors, ^10Panx1 300 μmol/L, probenecid 2 mmol/L"}}, "note": "Where two headings read alike, the source gives them in different places. No end group written: not given here.", "data": [{"compound": "NCCc1c[nH]c2ccc(O)cc12", "note": "[Serotonin]", "values": [{"measurement": "EMAX of agonist for TDA constriction", "setting": "[1]; [5]", "result": "38.2 ± 5.60 percentage of maximal diameter"}, {"measurement": "EMAX of agonist for TDA constriction", "setting": "[1]; [6]", "result": "40.1 ± 4.59 percentage of maximal diameter"}, {"measurement": "EMAX of agonist for TDA constriction", "setting": "[1]; [7]", "result": "30.4 ± 1.78 percentage of maximal diameter"}, {"measurement": "EMAX of agonist for TDA constriction", "setting": "[1]; [8]", "result": "36.1 ± 2.68 percentage of maximal diameter"}, {"measurement": "EC50", "setting": "[2]; [9]", "result": "14.2 ± 5.53", "unit": "nM"}, {"measurement": "EC50", "setting": "[2]; [10]", "result": "40.7 ± 12.2", "unit": "nM"}, {"measurement": "EC50", "setting": "[2]; [11]", "result": "65.2 ± 40.9", "unit": "nM"}, {"measurement": "EC50", "setting": "[2]; [12]", "result": "23.8 ± 5.07", "unit": "nM"}, {"measurement": "ATP release from intact TDAs in response to agonist", "setting": "[3]", "result": "neither serotonin nor endothelin-1 promoted ATP release"}]}, {"compound": "mPanx1 381-IPTSLQTKGE-390 (SEQ ID NO: 6) linked with a TAT sequence (YGRKKQRRR) (also: linked with TAT sequence (YGRKKQRRR), end not given here; UniProt Q9JIP4 381-390, looked up, fragment) [CT2]", "values": [{"measurement": "effect on phenylephrine-induced constriction of pressurized TDAs", "setting": "[4]", "result": "did not affect"}, {"measurement": "EMAX of phenylephrine for TDA constriction", "setting": "[4]; [13]", "result": "52.3 ± 4.86 percentage of maximal diameter"}]}, {"compound": "CC[C@H](C)[C@H](NC(=O)[C@H](CC(=O)O)NC(=O)[C@H](CC(C)C)NC(=O)[C@H](Cc1c[nH]cn1)NC(=O)[C@@H]1CSSC[C@H](N)C(=O)N[C@@H](CO)C(=O)N[C@H]2CSSC[C@H](NC(=O)[C@H](CCC(=O)O)NC(=O)[C@H](CCCCN)NC(=O)[C@H](CC(=O)O)NC(=O)[C@H](CCSC)NC(=O)[C@H](CC(C)C)NC(=O)[C@H](CO)NC(=O)[C@H](CO)NC2=O)C(=O)N[C@@H](C(C)C)C(=O)N[C@@H](Cc2ccc(O)cc2)C(=O)N[C@@H](Cc2ccccc2)C(=O)N1)C(=O)N[C@H](C(=O)N[C@@H](Cc1c[nH]c2ccccc12)C(=O)O)[C@@H](C)CC", "note": "[Endothelin-1, endothelin-1]", "values": [{"measurement": "EMAX of agonist for TDA constriction", "setting": "[1]; [5]", "result": "38.9 ± 6.90 percentage of maximal diameter"}, {"measurement": "EMAX of agonist for TDA constriction", "setting": "[1]; [6]", "result": "42.5 ± 4.82 percentage of maximal diameter"}, {"measurement": "EMAX of agonist for TDA constriction", "setting": "[1]; [7]", "result": "42.2 ± 6.50 percentage of maximal diameter"}, {"measurement": "EMAX of agonist for TDA constriction", "setting": "[1]; [8]", "result": "41.8 ± 4.95 percentage of maximal diameter"}, {"measurement": "EC50", "setting": "[1]; [5]", "result": "30.1 ± 14.6", "unit": "nM"}, {"measurement": "EC50", "setting": "[1]; [6]", "result": "5.64 ± 2.94", "unit": "nM"}, {"measurement": "EC50", "setting": "[1]; [7]", "result": "3.77 ± 0.56", "unit": "nM"}, {"measurement": "EC50", "setting": "[1]; [8]", "result": "18.4 ± 10.9", "unit": "nM"}, {"measurement": "ATP release from intact TDAs in response to agonist", "setting": "[3]", "result": "neither serotonin nor endothelin-1 promoted ATP release"}]}, {"compound": "mPanx1 178-VGQSLWEISE-187 (SEQ ID NO: 4) linked with a TAT sequence (YGRKKQRRR) (also: linked with TAT sequence (YGRKKQRRR), end not given here; UniProt Q9JIP4 178-187, looked up, fragment) [IL1]", "values": [{"measurement": "effect on phenylephrine-induced constriction of pressurized TDAs", "setting": "[4]", "result": "did not affect"}, {"measurement": "EMAX of phenylephrine for TDA constriction", "setting": "[4]; [13]", "result": "32.3 ± 3.81 percentage of maximal diameter"}]}, {"compound": "CCCN(CCC)S(=O)(=O)c1ccc(C(=O)O)cc1", "note": "[Probenecid]", "values": [{"measurement": "EMAX of endothelin-1 for TDA constriction", "setting": "[4]; [14]", "result": "34.6 ± 4.50 percentage of maximal diameter"}, {"measurement": "EMAX of noradrenaline for TDA constriction", "setting": "[4]; [14]", "result": "74.9 ± 3.04 percentage of maximal diameter"}, {"measurement": "EMAX of phenylephrine for TDA constriction", "setting": "[4]; [14]", "result": "72.6 ± 3.51 percentage of maximal diameter"}, {"measurement": "EMAX of serotonin for TDA constriction", "setting": "[4]; [14]", "result": "39.5 ± 3.29 percentage of maximal diameter"}, {"measurement": "effect on contraction of TDA in response to cumulative concentrations of serotonin or endothelin-1", "setting": "[4]; [15]", "result": "had no effect"}, {"measurement": "effect on phenylephrine- and noradrenaline-mediated contraction of TDA", "setting": "[4]; [15]", "result": "significantly inhibited"}]}, {"compound": "NC[C@H](O)c1ccc(O)c(O)c1", "note": "[Noradrenaline, noradrenaline]", "values": [{"measurement": "EMAX of agonist for TDA constriction", "setting": "[1]; [5]", "result": "56.4 ± 5.61 percentage of maximal diameter"}, {"measurement": "EMAX of agonist for TDA constriction", "setting": "[1]; [6]", "result": "48.2 ± 1.82 percentage of maximal diameter"}, {"measurement": "EMAX of agonist for TDA constriction", "setting": "[1]; [7]", "result": "45.6 ± 5.40 percentage of maximal diameter"}, {"measurement": "EMAX of agonist for TDA constriction", "setting": "[1]; [8]", "result": "41.4 ± 5.10 percentage of maximal diameter"}, {"measurement": "EC50", "setting": "[2]; [9]", "result": "50500 ± 24800", "unit": "nM"}, {"measurement": "EC50", "setting": "[2]; [10]", "result": "6780 ± 3200", "unit": "nM"}, {"measurement": "EC50", "setting": "[2]; [11]", "result": "10300 ± 1300", "unit": "nM"}, {"measurement": "EC50", "setting": "[2]; [12]", "result": "6280 ± 1450", "unit": "nM"}]}, {"compound": "YGRKKQRRR [TAT]", "values": [{"measurement": "effect on phenylephrine-induced constriction of pressurized TDAs", "setting": "[4]", "result": "no significant effect"}, {"measurement": "EMAX of phenylephrine for TDA constriction", "setting": "[4]; [13]", "result": "32.0 ± 6.21 percentage of maximal diameter"}, {"measurement": "effect on phenylephrine-induced ATP release from intact TDAs", "setting": "[3]; phenylephrine 100 μmol/L, ^10Panx1 300 μmol/L, peptides 3 μmol/L", "result": "no effect"}]}]}
